Assays:
[1] = tested on: human HL60 myeloid leukemia cells; assay: Inhibition of clonal growth of HL60 cells; type: cell-based; settings: effective dose that inhibited 50% clonal growth of human HL60 myeloid leukemia cells
[2] = Calcemic properties: highest dose that would not cause hypercalcemia; type: in vivo, mouse; settings: identified in previous experiments
Description: (§1) Vitamin D3 analogs were dissolved in absolute ethanol prior to determining the molar concentration as measured by UV absorbance using their molar extinction coefficient at […]. All the analogs were stored at −20° C. in absolute ethanol as stock solutions of 10^−3 mol/liter. The last dilution was made in phosphate buffered saline, prior to administration into mice. Vitamin D3 compounds were always protected from light. The inventors chose the highest dose that would not cause hypercalcemia. These doses, identified in previous experiments, are summarized below in Table 1.

BNX nu/nu mice [3] = assay: Hair growth scoring in nude mice; type: in vivo; parameters: key to Peak Score, Mouse 2: 1: Skin pink, no hair; 2: Skin thick, pigmented, no hair; 3: Skin thick, highly pigmented, no hair; 4: Skin thick, pigmented, scattered hair; 5: Hair 1-10% of area; 6: Hair 10-25% of area; 7: Hair 25-50% of area; 8: Hair 50-75% of area; 9: Hair >75% of area; Hair 100% covered
Description: In the experiments described herein, BNX nu/nu male and female mice at 8 weeks of age were used. In one series of experiments, a total of 3 males were allotted equally within each of the groups consisting of 6 different vitamin D3 compounds, and a control untreated group. In an addition, three male and 3 female mice received EB1089. All of the analogs were injected intraperitoneally (i.p.), three times a week in a volume of 200 μl phosphate buffered saline.
as §1
The inventors developed the following scale for measuring hair growth in BNX mice:
The inventors examined hair growth of nude mice as the mice received diluant (control mice), 1.25(OH)2D3 or one of 6 vitamin D3 analogs. Each group contained three mice. The effect of Vitamin D3 analogs on hair growth of nude mice was systematically assessed on each mouse by giving them scores from a scale of 1-10 (Table1), 3 times a week. The score for hair growth takes in to account the thickness and pigmentation, as both of these characteristics correlate indirectly with induction of anagen, the growth phase of the hair cycle. For example, a score of […] represents skin thickening with heavy pigmentation; this reflects the formation of the hair shaft prior to the protrusion of hair above the skin surface.

BNX nu/nu mice [4] = assay: Hair growth scoring in nude mice; type: in vivo; parameters: key: 1: Skin pink, no hair; 2: Skin thick, pigmented, no hair; 3: Skin thick, highly pigmented, no hair; 4: Skin thick, pigmented, scattered hair; 5: Hair 1-10% of area; 6: Hair 10-25% of area; 7: Hair 25-50% of area; 8: Hair 50-75% of area; 9: Hair >75% of area; Hair 100% covered; settings: male nude mice, i.p. 3 times a week, at least 35 days, hair score scale 1-10
[5] = tested on: MCF-7 breast cancer cells; assay: Inhibition of clonal growth of MCF-7 cells; type: cell-based, human; settings: effective dose that inhibited 50% clonal growth of MCF-7 breast cancer cells
[6] = tested on: CYP19 gene that encodes the P450 aromatase; assay: RT-PCR RNA analysis of skin samples for CYP19 expression; type: in vivo, mice; settings: skin samples at the highest score of 7, RT-PCR, data not shown
Description: Skin samples from mice were processed as is routinely done in the art. RT-PCR was performed to make cDNA which was examined for expression of CYP19 gene that encodes the P450 aromatase (9).
Skin samples at the highest score of 7 from Ro-25-9022 and control skin sample were processed to extract RNA, cDNA was made and amplified for the expression of CYP19 gene that encodes P450 aromatase.

[7] = female nude mice, i.p. 3 times a week, hair score scale 1-10
[8] = male nude mice, i.p. 3 times a week, at least 35 days, hair score scale 1-10
[9] = male nude mice, three mice per group, i.p. 3 times a week, hair score scale 1-10

Row | SMILES | ED50 HL60 [1] | NON-HYPERCALCEMIC DOSE [2] | timing of first peak of hair growth, females vs males (BNX nu/nu mice [3]; FIG. 3F) | ability to stimulate hair growth in male and female mice (BNX nu/nu mice [3]; both males and females) | latency period to achieve maximal hair growth (BNX nu/nu mice [3]; female nude mice) | Peak Score, Mouse 1 (BNX nu/nu mice [3]; [7]) | Peak Score, Mouse 2 (BNX nu/nu mice [3]; [7]) | Peak Score, Mouse 3 (BNX nu/nu mice [3]; [7]) | Mean Peak Score (BNX nu/nu mice [3]; female nude mice, three mice, i.p. 3 times a week, hair score scale 1-10) | latency period to achieve maximal hair growth (BNX nu/nu mice [3]; male nude mice) | Peak Score, Mouse 1 (BNX nu/nu mice [3]; [8]) | Peak Score, Mouse 2 (BNX nu/nu mice [3]; [8]) | Mean Peak Score (BNX nu/nu mice [3]; [9]) | time of second cycle of hair growth from the first cycle (BNX nu/nu mice [3]; nude mice) | Peak Score, Mouse 3 (BNX nu/nu mice [4]) | ED50 MCF-7 [5] | expression of CYP19 gene (P450 aromatase) vs control skin sample [6] | hair growth score reached, not exceeded (BNX nu/nu mice [3]; nude mice, scored 3 times a week, scale 1-10)
1 | C=C1/C(=C\C=C2/CCC[C@]3(C)[C@@H]([C@H](C)/C=C/C=C/C(O)(CC)CC)CC[C@@H]23)C[C@@H](O)C[C@@H]1O [EB1089] | 5 × 10^−11 MOLAR UNITS | 0.5 µg/kg | first peak of hair growth in females slightly preceded the peak in the males | Both males and females had hair stimulation | about 9 days | 7 (Hair 25-50% of area) | 7 (Hair 25-50% of area) | 7 (Hair 25-50% of area) | 7.00 | about 18 days | 7 (Hair 25-50% of area) | 8 (Hair 50-75% of area) | 6.33 | about 16 days | 4 | – | – | –
2 | C[C@H](C/C=C/C(O)(C(F)(F)F)C(F)(F)F)C1=CCC2/C(=C/C=C3C[C@@H](O)C[C@H](O)C3)CCC[C@]12C (stereo partly shown) [Ro25-9022, 1,25-(OH)2-16-ene-23-yne-26,27-F6-19-nor-D3] | 2 × 10^−10 MOLAR UNITS | 0.00125 μg/mouse | – | – | – | – | – | – | – | – | 8 (Hair 50-75% of area) | 4 | 6.33 | – | 4 | 6 × 10^−10 MOLAR UNITS | equivalent expression | –
3 | C=C1/C(=C\C=C2/CCC[C@]3(C)[C@@H]([C@@H](C)OCCCC(O)(CC)CC)CC[C@@H]23)C[C@@H](O)C[C@@H]1O [KH1060, 1α, 25—(OH)2-20-epi-22-oxa-24,26,27-trishomo-vitamin D3] | 1 × 10^−12 MOLAR UNITS | 0.0125 μg/mouse | – | – | – | – | – | – | – | ~21 days | 8 (Hair 50-75% of area) | 6 (Hair 10-25% of area) | 6.67 | – | 6 (Hair 10-25% of area) | 1 × 10^−10 MOLAR UNITS | – | –
4 | C[C@]12CCC/C(=C\C=C3C[C@@H](O)C[C@H](O)C3)C1CC[C@@H]2C1(C/C=C/C(O)(C(F)(F)F)C(F)(F)F)CC1 (stereo partly shown) [Ro27-0574] | 2 × 10^−10 MOLAR UNITS | – | – | – | – | – | – | – | – | – | 8 (Hair 50-75% of area) | 8 (Hair 50-75% of area) | 6.67 | about 16 days | 4 | 2 × 10^−9 MOLAR UNITS | – | –
5 | CC(C)(O)CCCC(CCCC(C)(C)O)[C@H]1CCC2/C(=C/C=C3C[C@@H](O)C[C@H](O)C3)CCC[C@@]21C (stereo partly shown) [Ro27-5646] | 2 × 10^−10 MOLAR UNITS | 0.01 μg/mouse | – | – | – | – | – | – | – | – | 8 (Hair 50-75% of area) | 8 (Hair 50-75% of area) | 7.33 | – | 6 (Hair 10-25% of area) | 4 × 10^−10 MOLAR UNITS | – | –
6 | C[C@H](CCC(=O)C(C)(C)O)C1=CCC2/C(=C/C=C3C[C@@H](O)C[C@H](O)C3)CCC[C@]12C (stereo partly shown) [Ro26-9114] | 1 × 10^−10 MOLAR UNITS | 6 μg/mouse | – | – | – | – | – | – | – | about 9 days | 8 (Hair 50-75% of area) | 8 (Hair 50-75% of area) | 5.33 | about 16 days | 4 | – | – | –
7 | C=C1/C(=C\C=C2/CCC[C@]3(C)[C@@H]([C@H](C)CCCC(C)(C)O)CC[C@@H]23)C[C@@H](O)C[C@@H]1O [1,25(OH)2D3, reference compound] | 1 × 10^−8 MOLAR UNITS | 0.0626 μg/mouse | – | – | – | – | – | – | – | – | 5 (Hair 1-10% of area) | 5 (Hair 1-10% of area) | 4.67 | – | 4 | 1 × 10^−7 MOLAR UNITS | – | 5 (Hair 1-10% of area)

Reference: patent US20030095937A1, “Method for stimulating hair growth by administering vitamin D analogs” (priority 2001, published 2003)
